The source of these data is paper PMC4219730 (PLoS ONE, 2014).

Read-outs that look alike come from different tables or passages of the source.

The subject of series [1] is xenografts of a human meningioma cell line (CH-157MN). The experiment in a line: Static PET/CT study: SUVmax and SUV ratios in mice bearing meningioma xenografts. Type of series: in vivo, NUDE NU/NU mice. The settings on record: for T/L SUV ratio (tumor-to-liver): SUVmax of tumor normalized to SUVmax of liver, p<0.001; for Visualization of flank tumors in PET/CT images: comparative PET/CT images of the same animal. How it is done: (§1) Animals were scanned on a small-animal PET scanner (ARGUS PET-CT, SEDECAL, Madrid, Spain) under anesthesia (isoflurane, 3% induction and 1.5% maintenance in 100% O2). Imaging was performed 7–28 days after tumor cell inoculation. […] Half of the animals imaged with ^68Ga-DOTATOC were also imaged with the other two radiotracers in alternate days with respect to ^68Ga-DOTATOC (Figure 1).
(§2) Frames corresponding to the last 60 minutes of the study were summed to form a static image. Images were reconstructed using the 2D–OSEM (Ordered Subset Expectation Maximization) algorithm (16 subsets and two iterations), which yields a spatial resolution for this scanner of 1.45 mm Full Width at Half Maximum (FWHM), with a voxel size of 0.3875×0.3875×0.7750 mm^3. The energy window was 400–700 keV. Decay and deadtime corrections were applied.
Three 3D ROIs were drawn manually on the CT image, one for each tissue of interest (tumor, liver, and muscle), plus a background ROI outside the body area. Since the CT images are intrinsically registered to the PET images, the ROIs drawn on the CT image were directly overlaid on the PET image after correction for the different image sizes. The assessment of PET data included calculation of the maximum standard uptake value (SUVmax) on the static tomographic study and computation of the volume of distribution (Vt) from the dynamic study.
Tumor, muscle, and liver SUVmax values at 30–90 minutes post-injection were recorded. […] The SUVmax of the tumor lesions was normalized to the SUVmax of the liver (T/L) and muscle (T/M). The T/L and T/M SUV ratios were considered markers of the ability of the radiopharmaceutical to localize in the tumor.

Another series relates to SSTR2. The conditions noted are these: cited from earlier work.
On the set-up of series [2]: method as in PMID 12937948. The conditions noted are these: comparison between tracers; cited from earlier work.
Another series concerns SSTR3. The conditions noted are these: cited from earlier work.
The next series has as its system SSTR5. The settings on record: cited from earlier work.
The test system of series [3] is xenografts of a human meningioma cell line (CH-157MN). In words: Dynamic PET study: volume of distribution (Vt) by Logan graphical analysis. Type of series: in vivo, NUDE NU/NU mice. The settings on record: two-tissue reversible compartmental model, comparison between radiotracers. How it is done: as §1, §2
Three 3D ROIs were drawn manually on the CT image, one for each tissue of interest (tumor, liver, and muscle), plus a background ROI outside the body area. Since the CT images are intrinsically registered to the PET images, the ROIs drawn on the CT image were directly overlaid on the PET image after correction for the different image sizes. […]
Vt was calculated from dynamic PET data using standard Logan graphical analysis for a two-tissue reversible compartmental model. […]

Another series relates to SSTR in CH-157MN cells. The experiment in a line: Homologous competitive binding with [^125I]-somatostatin-28 in CH-157MN meningioma cells. The arrangement: species or system human. The settings on record: 0.5 nM [^125I]-somatostatin-28, 37°C, 1 hour, mean ± SEM, three independent experiments in triplicate, read-out: IC50 (concentration of cold ligand that reduces specific binding of radioligand by 50%). Here is the method:
Affinity was determined from three independent experiments performed in triplicate and was measured by means of a homologous competitive binding experiment according to Motulsky and Neubig. The IC50 (concentration of cold ligand [somatostatin-28] that reduces specific binding of radioligand by 50%) was determined by competitive binding assays with [^125I]-somatostatin-28 (Amersham Pharmacia Biotech, UK) in CH-157MN meningioma cells. Briefly, cells were incubated into a 24-well cell culture plate (2–2.5×10^5 cells/well) at 37°C for 1 hour in a CO2 incubator with 0.5 nM [^125I]-somatostatin-28 (Amersham Pharmacia Biotech, UK) in the presence of increasing concentrations of somatostatin-28 (0.1 nM-10 µM) in 0.25 ml of binding media (DMEM, 2 mM L-glutamine, 50 units/ml penicillin and 50 µg/ml streptomycin). The reaction medium was aspirated after incubation. Cells were rinsed with 0.5 ml of ice-cold PBS twice and lysed in 0.5 ml of 1 N NaOH for five minutes. The activity in cells was measured in a Packard Cobra II gamma counter. The competitive binding curves were obtained by plotting the [^125I]-somatostatin-28 bound to cells against concentrations of cold ligand. IC50 and maximum numbers of binding sites (Bmax) were calculated using Origin 7.5 software (OriginLab Corporation, Northampton, Massachusetts, USA).

The mark [4] stands for this setting: comparison between radiotracers.

In the case of “^68Ga-DOTA -Tyr^3-octreotide [^68Ga-DOTATOC]”, the “T/L SUV ratio (tumor-to-liver)” value in series [1] (setting [4]) is “No differences were found between ^68Ga-DOTATATE and ^68Ga-DOTATOC”. Moreover, in series [1], the “Visualization of flank tumors in PET/CT images” value is reported as “better visualized”. The “Affinity for SSTR2” value in the series on SSTR2 is on record as “high affinity”.
Regarding “^68Ga-DOTA-Nal^3-octreotide [^68Ga-DOTANOC]”, the “Affinity for SSTR2” value with SSTR2 (comparison with ^68Ga-DOTATOC) is reported as “higher affinity for SSTR2 than ^68Ga-DOTATOC”. Further, in series [2], the Lipophilicity entry was “more lipophilic than ^68Ga-DOTATATE and ^68Ga-DOTATOC”. The “Affinity for SSTR3” value in the series with SSTR3 was “has affinity for SSTR3 and SSTR5”. Also, the “Affinity for SSTR5” value in the series with SSTR5 is “has affinity for SSTR3 and SSTR5”.
For the substance “^68Ga-DOTA-Tyr^3-octreotate [^68Ga-DOTATATE]”, the “T/L SUV ratio (tumor-to-liver)” value in series [1] (setting [4]) was “No differences were found between ^68Ga-DOTATATE and ^68Ga-DOTATOC”. The “T/M SUV ratio (tumor-to-muscle)” value in series [1] (SUVmax of tumor normalized to SUVmax of muscle, comparison between radiotracers) is “higher than that of ^68Ga-DOTATOC (p<0.01) and ^68Ga-DOTANOC (p<0.05)”. Also, in series [1], the “Visualization of flank tumors in PET/CT images” value was “better visualized”. The Vt tumor result in series [3] was “higher with ^68Ga-DOTATATE than with ^68Ga-DOTANOC and relatively similar to that of ^68Ga-DOTATOC”. Besides, the “Affinity for SSTR2” value with SSTR2 is recorded as “high affinity”.
Take somatostatin-28: the IC50 in the series on SSTR in CH-157MN cells stood at 63.7 ± 32.3 nM.
